Patent publication US8247394B2 (Cempra Pharmaceuticals Inc., priority 2010, dated 2012)
Values after ≈ are worked out from the molar mass of the structure shown. Read-outs that look alike come from different tables or passages of the source. Blank lines part the entries; values can stand above or below the molecule they belong to.

Assays:
[1] = test system: C. trachomatis; test: In vitro susceptibility testing of C. trachomatis in cell culture using HEp-2 cells (MIC/MBC); type: cell-based, Chlamydia trachomatis; settings: for MBC / MIC90 / MIC: Chlamydia trachomatis
Method: Chlamydia isolates: 10 isolates of C. trachomatis in order to determine the MIC90 and MBC90 for each antibiotic.
C. trachomatis: 10 isolates of C. trachomatis, including standard isolates from the ATCC (E-BOUR, F-IC-CAL3, C-HAR32, J-UW-36, L2434, D-UW-57kx, B-HAR-36) and recent clinical isolates N18 (cervical), N19 (cervical), 7015 (infant eye).
In vitro susceptibility testing: Susceptibility testing of C. trachomatis was performed in cell culture using HEp-2 cells grown in 96-well microtiter plates. Each well was inoculated with 0.1 ml of the test strain diluted to yield 10^3 to 10^4 IFU/per ml, centrifuged at 1,700×g for 1 hr and incubated at 35° C. for 1 hr. Wells were then aspirated and overlaid with 0.2 ml of medium containing 1 μg of cycloheximide per ml and serial two fold dilutions of the test drug. Duplicate plates were inoculated. After incubation at 35° C. for 48-72 hrs, cultures were fixed and stained for inclusions with fluorescein-conjugated antibody to the lipopolysaccharide genus antigen ([…]™, Kallestad Diagnostics, Chaska, Minn.). The minimal inhibitory concentration (MIC) was the lowest antibiotic concentration at which no inclusions are seen. The minimal bactericidal concentration (MBC) was determined by aspirating the antibiotic containing medium, washing wells twice with phosphate buffered saline and adding antibiotic-free medium. Cultures were frozen at −70° C., thawed, passed onto new cells, incubated for 72 hrs then fixed and stained as above. The MBC was the lowest antibiotic concentration that results in no inclusions after passage. All tests were run in triplicate.
Ten isolates of C. trachomatis including standard isolates from the ATCC (E-BOUR, F-IC-CAL3, C-HAR32, J-UW-36, L2434, D-UW-57kx, B-HAR-36) and recent clinical isolates N18 (cervical), N19 (cervical), 7015 (infant eye) were selected for study. Susceptibility testing was performed in cell culture using HEp-2 cells (Roblin et. al. Antimicrob. Agents Chemother. 42:194-196 (1998)) at State University of New York, Downstate Medical Center (Brooklyn, N.Y., USA).

[2] = blood; cited from earlier work
[3] = test system: N. gonorrhoeae; test: Reference agar dilution susceptibility testing (CLSI M07-A8) of N. gonorrhoeae clinical isolates; type: cell-based, Neisseria gonorrhoeae; settings: for % by category, R (resistant); resistance rate / % by category, S (susceptible): CLSI criteria, 35 strains
Method: Thirty-five clinical isolates of N. gonorrhoeae collected in the United States (USA), Asia and European medical centers since 2005 were tested using reference agar dilution methods per Clinical and Laboratory Standards Institute (CLSI) M07-A8 (Clinical and Laboratory Standards Institute. 2009. M07-A8, Methods for dilution antimicrobial susceptibility tests for bacteria that grow aerobically; approved standard—eighth edition. Wayne, Pa.: CLSI) and M100-S20 documents (Clinical and Laboratory Standards Institute. 2010. M100-S20, Performance standards for antimicrobial susceptibility testing, 20th informational supplement. Wayne, Pa.: CLSI). […] Quality control (QC) ranges and interpretive criteria for comparator compounds were as published by CLSI (Clinical and Laboratory Standards Institute. 2010. M100-S20, Performance standards for antimicrobial susceptibility testing, 20th informational supplement. Wayne, Pa.: CLSI).

[4] = 10 strains of C. trachomatis, read-out: MBC90
[5] = Neisseria gonorrhoeae, 35 N. gonorrhoeae strains, read-out: MIC50
[6] = number of isolates among 35 strains

- MIC 90% ([1]; 10 strains): 0.06 µg/mL (≈ 0.135 µM)
- MIC Range ([1]; 10 strains): 0.015 to 0.06 µg/mL
- MIC90 ([1]; 10 strains of C. trachomatis): 0.06 µg/mL (≈ 0.135 µM)
Molecule: C[C@H]1c2cccc(O)c2C(=O)C2=C(O)[C@]3(O)C(=O)C(C(N)=O)=C(O)[C@@H](N(C)C)[C@@H]3[C@@H](O)[C@@H]21 [Doxycycline, doxycycline]
- MBC Range ([1]; 10 strains): 0.015 to 0.06 µg/mL
- MBC ([1]; 10 strains, read-out: MBC 90%): 0.06 µg/mL (≈ 0.135 µM)

- Occurrences at MIC 0.015 μg/ml [3, 6]: 6
- Occurrences at MIC 0.03 μg/ml [3, 6]: 6
- Occurrences at MIC 0.06 μg/ml [3, 6]: 3
- Occurrences at MIC 0.12 μg/ml [3, 6]: 2
- Occurrences at MIC ≦0.008 μg/ml [3, 6]: 18
Molecule: CO/N=C(\C(=O)N[C@@H]1C(=O)N2C(C(=O)O)=C(CSc3nc(=O)c(=O)[nH]n3C)CS[C@H]12)c1csc(N)n1 [Ceftriaxone, ceftriaxone]
- % by category, R (resistant); resistance rate [3]: 0.0%
- % by category, S (susceptible) [3]: 100.0/— %

- MIC 90% ([1]; 10 strains): 0.12 µg/mL (≈ 0.16 µM)
- MIC Range ([1]; 10 strains): 0.015 to 0.12 µg/mL
- MIC90 ([1]; 10 strains of C. trachomatis): 0.12 µg/mL (≈ 0.16 µM)
- MIC50 [3, 5]: 0.25 µg/mL (≈ 0.334 µM)
- Occurrences at MIC 0.06 μg/ml [3, 6]: 1
- Occurrences at MIC 0.12 μg/ml [3, 6]: 15
- Occurrences at MIC 0.25 μg/ml [3, 6]: 12
- Occurrences at MIC 0.5 μg/ml [3, 6]: 5
- Occurrences at MIC 1 μg/ml [3, 6]: 1
- Occurrences at MIC 2 μg/ml [3, 6]: 1
Molecule: CC[C@H]1OC(=O)[C@H](C)[C@@H](O[C@H]2C[C@@](C)(OC)[C@@H](O)[C@H](C)O2)[C@H](C)[C@@H](O[C@@H]2O[C@H](C)C[C@H](N(C)C)[C@H]2O)[C@](C)(O)C[C@@H](C)CN(C)[C@H](C)[C@@H](O)[C@]1(C)O [Azithromycin, azithromycin]
- MBC Range ([1]; 10 strains): 0.015 to 0.12 µg/mL
- MBC ([1]; 10 strains, read-out: MBC 90%): 0.12 µg/mL (≈ 0.16 µM)
- % by category, R (resistant); resistance rate [3]: 0.0%

The next lines start with the molecule.

Molecule: CC(=O)O[C@H]1C[C@@]2(C)[C@@H](C[C@@H](O)[C@H]3[C@@]4(C)CC[C@@H](O)[C@@H](C)[C@@H]4CC[C@@]32C)/C1=C(\CCC=C(C)C)C(=O)[O-].[Na+] [CEM 102, Sodium fusidate]
- MIC ([1]; strain 7015): 0.5 µg/mL
- MBC ([1]; strain 7015, read-out: MBC): 0.5 µg/mL
- MIC ([1]; strain Ct D): 0.5 µg/mL
- MBC ([1]; strain Ct D, read-out: MBC): 0.5 µg/mL
- MIC ([1]; strain Ct E): 0.5 µg/mL
- MBC ([1]; strain Ct E, read-out: MBC): 0.5 µg/mL
- MIC ([1]; strain Ct F): 0.5 µg/mL
- MBC ([1]; strain Ct F, read-out: MBC): 0.5 µg/mL
- MIC ([1]; strain Ct H): 0.5 µg/mL
- MBC ([1]; strain Ct H, read-out: MBC): 0.5 µg/mL
- MIC ([1]; strain Ct I): 0.5 µg/mL
- MBC ([1]; strain Ct I, read-out: MBC): 0.5 µg/mL
- MIC ([1]; strain Ct J): 0.5 µg/mL
- MBC ([1]; strain Ct J, read-out: MBC): 0.5 µg/mL
- MIC ([1]; strain L2): 0.25 µg/mL
- MBC ([1]; strain L2, read-out: MBC): 0.25 µg/mL
- MIC ([1]; strain N18): 0.25 µg/mL
- MBC ([1]; strain N18, read-out: MBC): 0.25 µg/mL
- MIC ([1]; strain N19): 0.125 µg/mL
- MBC ([1]; strain N19, read-out: MBC): 0.125 µg/mL
- MIC90 ([1]; 10 strains of C. trachomatis): 0.5 µg/mL
- MBC [1, 4]: 0.5 µg/mL

Molecule: CC(=O)O[C@H]1C[C@@]2(C)[C@@H](C[C@@H](O)[C@H]3[C@@]4(C)CC[C@@H](O)[C@@H](C)[C@@H]4CC[C@@]32C)/C1=C(\CCC=C(C)C)C(=O)O [Fusidic acid]
- MBC Range ([1]; 10 strains): 0.12 to 0.5 µg/mL
- MIC 90% ([1]; 10 strains): 0.5 µg/mL (≈ 0.968 µM)
- MIC Range ([1]; 10 strains): 0.12 to 0.5 µg/mL
- MIC range ([1]; 10 strains): 0.12 to 0.5 µg/mL
- MBC ([1]; 10 strains, read-out: MBC 90%): 0.5 µg/mL (≈ 0.968 µM)
- MIC90 ([1]; 10 strains of C. trachomatis): 0.5 µg/mL (≈ 0.968 µM)
- MBC [1, 4]: 0.5 µg/mL (≈ 0.968 µM)
- protein binding [2]: 95-97%
- Occurrences at MIC 0.25 μg/ml [3]: 12
- Occurrences at MIC 0.5 μg/ml [3]: 17
- Occurrences at MIC 1 μg/ml [3]: 5
- Occurrences at MIC 2 μg/ml [3]: 1
- MIC90 ([3]; Neisseria gonorrhoeae, 35 N. gonorrhoeae strains): 1 µg/mL (≈ 1.94 µM)
- MIC50 [3, 5]: 0.5 µg/mL (≈ 0.968 µM)
- Concentration at which active against all strains tested ([3]; all N. gonorrhoeae strains tested): ≤ 2 µg/mL

Molecule: CC[C@H]1OC(=O)[C@H](C)[C@@H](O[C@H]2C[C@@](C)(OC)[C@@H](O)[C@H](C)O2)[C@H](C)[C@@H](O[C@@H]2O[C@H](C)C[C@H](N(C)C)[C@H]2O)[C@](C)(OC)C[C@@H](C)C(=O)[C@H](C)[C@@H](O)[C@]1(C)O [Clarithromycin, clarithromycin]
- MBC Range ([1]; 10 strains): 0.015 to 0.12 µg/mL
- MIC 90% ([1]; 10 strains): 0.06 µg/mL (≈ 0.0802 µM)
- MIC Range ([1]; 10 strains): 0.015 to 0.12 µg/mL
- MBC ([1]; 10 strains, read-out: MBC 90%): 0.06 µg/mL (≈ 0.0802 µM)
- MIC90 ([1]; 10 strains of C. trachomatis): 0.06 µg/mL (≈ 0.0802 µM)

Molecule: penicillin
- MIC50 ([3]; 35 N. gonorrhoeae strains): 1 µg/mL
- % by category, R (resistant); resistance rate [3]: 45.7%
- % by category, S (susceptible) [3]: 22.9%
- Occurrences at MIC 0.015 μg/ml [3, 6]: 1
- Occurrences at MIC 0.03 μg/ml [3, 6]: 4
- Occurrences at MIC 0.06 μg/ml [3, 6]: 3
- Occurrences at MIC 0.25 μg/ml [3, 6]: 2
- Occurrences at MIC 0.5 μg/ml [3, 6]: 4
- Occurrences at MIC 1 μg/ml [3, 6]: 5
- Occurrences at MIC 2 μg/ml [3, 6]: 6
- Occurrences at MIC 4 μg/ml [3, 6]: 4
- Occurrences at MIC >4 μg/ml [3, 6]: 6

Molecule: CN(C)[C@@H]1C(O)=C(C(N)=O)C(=O)[C@@]2(O)C(O)=C3C(=O)c4c(O)cccc4[C@@](C)(O)[C@H]3C[C@@H]12 [Tetracycline, tetracycline]
- % by category, R (resistant); resistance rate [3]: 34.3%
- % by category, S (susceptible) [3]: 22.9%
- MIC50 [3, 5]: 1 µg/mL (≈ 2.25 µM)
- Occurrences at MIC 0.12 μg/ml [3, 6]: 6
- Occurrences at MIC 0.25 μg/ml [3, 6]: 2
- Occurrences at MIC 0.5 μg/ml [3, 6]: 8
- Occurrences at MIC 1 μg/ml [3, 6]: 7
- Occurrences at MIC 2 μg/ml [3, 6]: 7
- Occurrences at MIC 4 μg/ml [3, 6]: 1
- Occurrences at MIC >4 μg/ml [3, 6]: 4

Molecule: CC[C@H]1OC(=O)[C@H](C)C(=O)[C@H](C)[C@@H](O[C@@H]2O[C@H](C)C[C@H](N(C)C)[C@H]2O)[C@](C)(OC)C[C@@H](C)C(=O)[C@H](C)[C@H]2N(CCCCn3cnc(-c4cccnc4)c3)C(=O)O[C@]12C [Telithromycin, telithromycin]
- MBC Range ([1]; 10 strains): 0.015 to 0.25 µg/mL
- MIC 90% ([1]; 10 strains): 0.06 µg/mL (≈ 0.0739 µM)
- MIC Range ([1]; 10 strains): 0.015 to 0.25 µg/mL
- MBC ([1]; 10 strains, read-out: MBC 90%): 0.06 µg/mL (≈ 0.0739 µM)
- MIC90 ([1]; 10 strains of C. trachomatis): 0.06 µg/mL (≈ 0.0739 µM)
